Reference: ChEMBL document CHEMBL5052834, “CXCL10 Inhibitors” (2021)
Activity calls are given as the source filed them. The calls are words filed in the database; no cut-off is given here.

What was measured:
[1] = tested on: Keratinocyte; assay: Inhibition of CXCL10 gene expression in poly (I:C)-stimulated human keratinocytes; format: functional, cell-based
[2] = tested on: Keratinocyte; assay: Inhibition of CXCL10 protein secretion in TNF-alpha-stimulated human keratinocytes measured by ELISA assay; format: functional, cell-based
[3] = tested on: Keratinocyte; assay: Inhibition of CXCL10 protein secretion in LPS-stimulated human keratinocytes measured by ELISA assay; format: functional, cell-based
[4] = tested on: Keratinocyte; assay: Inhibition of CXCL10 gene expression in IFN-gamma-stimulated human keratinocytes; format: functional, cell-based
[5] = tested on: Keratinocyte; assay: Inhibition of CXCL10 gene expression in LPS-stimulated human keratinocytes; format: functional, cell-based
[6] = tested on: Keratinocyte; assay: Inhibition of CXCL10 gene expression in TNF-alpha-stimulated human keratinocytes; format: functional, cell-based
[7] = tested on: Keratinocyte; assay: Inhibition of CXCL10 protein secretion in IFN-gamma-stimulated human keratinocytes measured by ELISA assay; format: functional, cell-based
[8] = tested on: Keratinocyte; assay: Inhibition of CXCL10 protein secretion in poly (I:C)-stimulated human keratinocytes measured by ELISA assay; format: functional, cell-based
[9] = species on record: Rattus norvegicus; assay: Inhibition of CXCL10 gene expression in streptozotocin (STZ)-induced diabetes induced retinopathy model of rat assessed as decrease in amount of CXCL10 in retina measured by ELISA assay; format: functional
[10] = species on record: Rattus norvegicus; assay: Antiangiogenic activity in streptozotocin (STZ)-induced diabetes induced retinopathy model of rat assessed as decrease in retinal vascular permeability measured by Evans blue dye metho; format: functional, organism-based
[11] = tested on: Mus musculus; assay: In vivo inhibition of CXCL10 gene expression in experimental autoimmune uveitis (EAU) model of C57BL/6 mouse; format: functional, organism-based

With `COc1ccnc(CS(=O)(=O)c2nc3ccccc3[nH]2)c1OC` the inhibition [1] was “Active”.

`COc1c(C)cnc(C[S@@](=O)c2nc3ccccc3[nH]2)c1C` was tested, and the inhibition [2] was “Active”.

`Cc1c(OCC(F)(F)F)ccnc1C[S+]([O-])c1nc2ccccc2[nH]1` (stereo not drawn) was tested, and the inhibition [3] was “Active”, the inhibition [4] was “Active” and the inhibition [5] was “Active”. For the same compound, the inhibition [6] was “Active”.

With `COc1ccnc(CC(C)(O)c2nc3cc(OC(F)(F)F)ccc3[nH]2)c1OC` (stereo not drawn) the inhibition [2] was “Active”.

In the case of `COCCCOc1ccnc(CS(=O)(=O)c2nc3ccccc3[nH]2)c1C`, the inhibition [7] is reported as “Active”.

With `COc1ccc2[nH]c(S(=O)(=O)Cc3ncc(C)c(OC)c3C)nc2c1` the inhibition [3] was “Active”.

`COc1c(C)cnc(C[S@+]([O-])c2nc3cc(OC(F)F)ccc3[nH]2)c1C` was tested, and the inhibition [5] was “Active”.

With `COc1ccnc(CC(O)c2nc3cc(OC(F)(F)F)ccc3[nH]2)c1C` (stereo not drawn) the inhibition [6] was “Active”.

For `COc1ccc2[nH]c(C(=O)Cc3ncc(C)c(OC)c3C)nc2c1`, the inhibition [1] was “Active”.

For `COc1ccnc(C[S+]([O-])c2nc3cc(-n4cccc4)ccc3[nH]2)c1C` (stereo not drawn), the inhibition [2] was “Active” and the inhibition [8] was “Active”.

In the case of `Cc1c(OCC(F)(F)F)ccnc1CS(=O)(=O)c1nc2cc(OC(F)F)ccc2[nH]1`, the inhibition [4] is reported as “Active” and the inhibition [5] is reported as “Active”.

For `COc1ccnc(CS(=O)(=O)c2nc3cc(OC(F)F)ccc3[nH]2)c1OC`, the inhibition [7] was “Active”.

For `COc1c(C)cnc(CC(O)c2nc3ccccc3[nH]2)c1C` (stereo not drawn), the inhibition [6] was “Active”.

For `COCCCOc1ccnc(C[S@+]([O-])c2nc3cc(OC(F)(F)F)ccc3[nH]2)c1C`, the inhibition [3] was “Active”.

`COc1c(C)cnc(CS(=O)(=O)c2nc3cc(-n4cccc4)ccc3[nH]2)c1C` was tested, and the inhibition [8] was “Active”.

In the case of `COc1ccnc(CC(O)c2nc3cc(OC(F)(F)F)ccc3[nH]2)c1OC` (stereo not drawn), the inhibition [2] is reported as “Active”.

`COc1ccnc(CC(O)c2nc3ccccc3[nH]2)c1C` (stereo not drawn) was tested, and the inhibition [8] was “Active” and the inhibition [1] was “Active”.

`COc1ccnc(CC(C)(O)c2nc3cc(-n4cccc4)ccc3[nH]2)c1OC` (stereo not drawn) was tested, and the inhibition [7] was “Active”.

`Cc1c(OCC(F)(F)F)ccnc1CS(=O)(=O)c1nc2cc(-n3cccc3)ccc2[nH]1` was tested, and the inhibition [6] was “Active”.

In the case of `COCCCOc1ccnc(CC(=O)c2nc3cc(OC(F)(F)F)ccc3[nH]2)c1C`, the inhibition [1] is reported as “Active”.

With `COc1c(C)cnc(CC(O)c2nc3cc(-n4cccc4)ccc3[nH]2)c1C` (stereo not drawn) the inhibition [4] was “Active”.

With `COc1ccc2[nH]c([S+]([O-])Cc3ncc(C)c(OC)c3C)nc2c1` (stereo not drawn) the inhibition [9] was “Active”, the inhibition [7] was “Active” and the Activity [10] was “Active”. For the same compound, the inhibition [3] was “Active”, the inhibition [11] was “Active” and the inhibition [8] was “Active”. The inhibition [1] was “Active” and the inhibition [6] was “Active”.

For `COc1c(C)cnc(C[S@@+]([O-])c2nc3cc(OC(F)F)ccc3[nH]2)c1C`, the inhibition [3] was “Active”.

For `Cc1c(OCC(F)(F)F)ccnc1CC(C)(O)c1nc2cc(OC(F)F)ccc2[nH]1` (stereo not drawn), the inhibition [3] was “Active”.

In the case of `COCCCOc1ccnc(C[S+]([O-])c2nc3ccccc3[nH]2)c1C` (stereo not drawn), the inhibition [2] is reported as “Active”, the inhibition [5] is reported as “Active” and the inhibition [8] is reported as “Active”.

With `COc1c(C)cnc(CS(=O)(=O)c2nc3cc(OC(F)F)ccc3[nH]2)c1C` the inhibition [5] was “Active”.

With `COc1ccc2[nH]c([S@@+]([O-])Cc3nccc(OC)c3C)nc2c1` the inhibition [2] was “Active” and the inhibition [4] was “Active”.

For `Cc1cnc(CC(O)c2nc3cc(OC(F)F)ccc3[nH]2)c(C)c1OCC(F)(F)F` (stereo not drawn), the inhibition [7] was “Active”.

In the case of `Cc1cnc(CC(=O)c2nc3ccccc3[nH]2)c(C)c1OCC(F)(F)F`, the inhibition [8] is reported as “Active”.

In the case of `COc1ccc2[nH]c([S@+]([O-])Cc3ncc(C)c(OC)c3C)nc2c1`, the inhibition [4] is reported as “Active”.

For `COc1ccnc(C[S+]([O-])c2nc3cc(OC(F)F)ccc3[nH]2)c1OC` (stereo not drawn), the inhibition [9] was “Active”, the inhibition [7] was “Active” and the Activity [10] was “Active”. The inhibition [5] was “Active”, the inhibition [1] was “Active” and the inhibition [6] was “Active”.

`COc1ccc2[nH]c(S(=O)(=O)Cc3nccc(OC)c3C)nc2c1` was tested, and the inhibition [4] was “Active”.
